These results are taken from PMC4439283 (The FEBS journal, 2015).

Where two headings read alike, the source gives them in different places.

As a reminder, the Kd is the constant that tells how readily two partners part at equilibrium. Read a high Kd as lower affinity.

For data set [1] the following is noted: in solution; ref [16]; cited from earlier work.
The test system of data set [2] is R5 viruses. The note with it: ref [15], cited from earlier work.
Data set [3] deals with X4 viruses. The note with it: ref [15]; cited from earlier work.
The test system of data set [4] is R5 viruses. The note with it: ref [16]; cited from earlier work.
Data set [5] deals with X4 viruses. The note with it: ref [16]; cited from earlier work.
The test system of data set [6] is X4 strain LAV. The note with it: ref [15]; cited from earlier work.
Data set [7] addresses biotinylated ECL2S peptide (Biotin-GSGS-CCR5 R168-K197 C178S-GSGS) (human). Description: SPR. Background: In SPR one partner is held on a chip, and binding of the other changes the refractive index at the surface.
Data set [8] has the same target. The data set can be described thus: SPR. This is another data set of the same source.
Data set [9] shares this target. The data set can be described thus: SPR. The source holds these as a separate data set.

As to “PL2: CCR5 ECL2 peptide, residues 168-191 (RSQKEGLHYTCSSHFPYSQYQFWK; UniProt P51681 168-191, looked up, fragment)”, in data set [1], the “conformation of free peptide” value was “unstructured in solution”. Moreover, the strain specificity result in [2] (R5 strains) was “specific for R5 strains”. In data set [2] (R5 virus Ba-L), the “50% inhibition concentration, fusion” value is 20 µg/mL. In addition, in data set [2] (fusion of R5 viruses with target cells), the “fusion inhibition, R5 viruses” value was “inhibited the fusion of R5 viruses with target cells”. The “fusion inhibition, X4 viruses” value in data set [3] is “did not inhibit fusion of X4 viruses”. Besides, the neutralization concentration range in data set [4] and in data set [5] was around 100 µM in each case. The “neutralization of X4 strain LAV” value in [6] is “None of these peptides neutralized the X4 strain LAV”.

“^mutgp120_(core) (HIV-1 JR-FL gp120 88-492, ΔV1/V2, V3 replaced by GAG, non-aggregating mutant) (domain or fragment)”: the dissociation constant Kd in data set [7] amounted to 18 µM.

For the substance ^mutgp120_(core)/CD4M33 complex, the values for the Kd in [8], in [9] and in data set [7] were 7 µM, 7.5 µM and 6 µM, respectively.
